This is an account of results in patent US20220127682A1, “SELECTION AND TREATMENT OF CANCER WITH COMBINATION THERAPIES” (Massachusetts Institute of Technology, priority 2020, published 2022).

Assay [1] has as its system more than 90 cell lines (multiple cancer types). The assay is described as follows: Combinatorial drug screening of more than 90 cell lines for more than additive effect. The format is cell-based. As to conditions: onvansertib and abiraterone; more than 90 cell lines screened; data not shown.
The subject of assay [2] is large number of cell lines, solid and hematological tumors. The following applies: cited from earlier work.
The subject of assay [3] is tumor cells and normal cells. The following applies: cited from earlier work.
Assay [4] deals with MV-4-11 acute myeloid leukemia cells. The assay is described as follows: Cell viability (CellTiter-Glo, 72 h) of drug combinations vs Bliss expected. Format: cell-based. The following applies: onvansertib 22.2 nM plus abiraterone. (In general: ATP-based viability assays read luminescence as a measure of living cells.)
Assay [5] concerns C4-2 castrate resistant prostate cancer cells. The assay is described as above. The format is cell-based. As to conditions: C4-2 CRPC cells; combined with abiraterone; 72 hours; Bliss independence.
Assay [6] deals with LNCaP androgen-dependent prostate cancer cells. The assay is described as above. The format is cell-based. The following applies: Bliss independence.
Assay [7] deals with OCI-AML-3 acute myeloid leukemia cells. The assay is described as above. The format is cell-based. The following applies: onvansertib 22.2 nM plus abiraterone.
Assay [8] concerns OAW28 ovarian cancer cells. Described as above. Format: cell-based. As to conditions: onvansertib 15 nM plus abiraterone.
In assay [9] the test system is PSN-1 pancreatic cancer cells. The assay is described as above. Format: cell-based. As to conditions: onvansertib 22.2 nM plus abiraterone.
In assay [10] the test system is Panc 10.05 pancreatic cancer cells. The assay is described as above. The following applies: onvansertib 33.3 nM plus abiraterone. The format is cell-based.

Consider `CN1CCN(c2ccc(OC(F)(F)F)c(Nc3ncc4c(n3)-c3c(c(C(N)=O)nn3CCO)CC4)c2)CC1` [onvansertib], for which, in [1], the “cell lines in which the more than additive effect was detected” value is given as “approximately 30%”. Also, the “activity in proliferation assays” value in [2] is “low nanomolar activity”. Besides, the “sensitivity of tumor cells to induced cell death relative to normal cells” value in assay [3] is recorded as 10 fold. The “response to the combination of abiraterone and PLK1 inhibitor vs expected additive” value in assay [4] is “greater than additive response”; in assay [7], “do not have a greater than additive response”; in assay [8], “do not have a greater than additive response”; in assay [9], “greater than additive response”; in [10] it was “do not have a greater than additive response”. In addition, the “tumor cell killing of PLK inhibitor combined with abiraterone, vs expected additive” value in assay [5] is reported as “more than additive”. For the same compound, the “viability effect of PLK1 inhibitor combined with abiraterone, vs expected additive” value in [6] is reported as “No greater than additive effect”.
